According to US11708393B2, “Targeted non-invasive imaging probes of EGFR expressing cells” (priority 2011, dated 2023):
Entries after “also recorded” stand apart in the source; their conditions may differ. Cy5.5 = cyanine fluorochrome label, coupled as NHS ester; AEEA = NCCOCCOCC(=O)O

What was measured:
[1] = test system: Gli36Δ5 orthotopic brain tumors overexpressing EGFR; experiment: Ex vivo fluorescence imaging of brains with orthotopic Gli36Δ5 tumors; format: in vivo, mice; conditions: for accumulation in tumor, % of injected dose: 1 nmol/g tail vein, 1 hour, brains imaged ex vivo; for tumor targeting (in words): 1 nmol/g, ex vivo analysis of brain tissues
Protocol: NIH athymic nude female mice (5-8 weeks and 20-25 g upon arrival, NCI-NIH) were maintained at the Animal Resource Center at Case Western Reserve University (Cleveland, Ohio) according to institutional policies. Cell for brain implantation were harvested with 1 mL 0.05% trypsin-EDTA (Gibco) and briefly washed with PBS. Trypsin was inactivated by the addition of serum-containing media. The resulting cell suspension was centrifuged at […] for 3 minutes. The cell suspension was centrifuged and the supernatant was removed after 2 washes in PBS. Finally, the cells were resuspended in […] PBS for brain implants per animal (250,000 cells per animal for brain implants). Immediately following the cell harvesting procedure, animals were inoculated. For brain tumor implantation, mice were anesthetized by intraperitoneal (i.p.) injection of 50 mg/kg ketamine/xylazine and fitted into a stereotaxic rodent frame (David Kopf Instruments). A small incision was made just lateral to midline to expose bregma suture. A small (1.0 mm) burr hole was drilled at anterior (AP)=+1, lateral (ML)=−2.5 from the bregma. Glioblastoma cells were slowly deposited at a rate of 1 μL/min in the right striatum at a depth of 3 mm from dura with a 10-μL syringe (23-G needle). The needle was slowly withdrawn and the incision was closed with 2 to 3 sutures. Brain tumors grew for 10 to 12 days as per IACUC protocols at which point in vivo imaging studies were conducted. As control for the effects of surgical intervention, animals were also subjected to the implantation procedure but Optical Imaging of Tumors with EGFR Overexpression received 2 μL PBS (sham animals). Animals were fed exclusively on a special rodent diet (Harlan Laboratories, Inc.; Tekland 2018S) to reduce autofluorescence.
Mice bearing brain tumors derived from Gli36Δ5 or U87-MG cells were administered with compounds at 1 nmol/g via tail vein injection. In vivo competition assays were done with mixture of compound 2 and 10-fold concentration of nonlabeled probe 5. Before injection, mice were anesthetized with isoflurane and subjected to tomographic and spectral fluorescence imaging. One hour after injection, animals were re-imaged. Brains were then extracted and imaged. The excised brains were embedded in Tissue-Tek optimum cutting temperature for cryosections for immunohistochemistry (IHC). Fluorescence-mediated molecular tomography (FMT) images were obtained using FMT2500 (Perkin-Elmer), and 3-dimensional reconstructions of fluorescent signals were acquired using the accompanying software TrueQuant. Quantitative fluorescent signals for Cy5.5 of compound 2 were calibrated as per manufacturer's instructions using the 680-channel. Region of interest (ROI) assigned on the basis of the precise placement of cells during implantation at 3 to 4 mm into the brain. ROI was corroborated with fluorescent signals from ex vivo imaging. Fluorescent multispectral images were obtained using the Maestro In-Vivo Imaging System (CRi, Inc.). […] Fluorescence images were acquired before treatment, immediately after and 1.5 hours after treatment. To compare signal intensities, ROIs were selected over the tumor or nontumor areas, and the change in fluorescence signal over baseline was determined. […] The total signal in the ROI defined in photons measured at the surface of the animal was divided by the area (in pixels). Spectral libraries were generated by assigning spectral peaks to background and fluorescence probe on tissue. […]

[2] = biological target: T1, EGFR (Homo sapiens, UniProt P00533); experiment: Saturation binding assay of Cy5.5-labeled peptides on Gli36Δ5 cells; conditions: for Kd: 37° C., 90 minutes, read-out: apparent binding affinity Kd from saturation binding assay
T1 construct: endogenous in cells; host or cells: Gli36Δ5 human glioblastoma cells
Protocol: To determine binding affinities of the Cy5.5-labeled peptides 1 to 4 to EGFR, a saturation binding assay protocol using labeled fluorescence ligand against cell surface receptors was adapted as previously reported. Briefly, Gli36Δ5 cells were plated 20,000 cells per well were plated on black Costar 96-well plates (cat. no. 3603). Probes were diluted to range of concentration ([…]) in growing media with 0.3% bovine serum albumin (BSA) and added into wells and incubated at 37° C. for 90 minutes at 5% CO2. Cells were then washed with PBS twice and dried. DMSO was added before reading fluorescence (excitation 670 nm, emission 700 nm) with a Tecan Infinite M200 plate reader. Saturation binding assay data were in quadruplicates and analyzed using one site binding classical equation for nonlinear regression analysis with the GraphPad Prism version 4.0.
Binding affinity was determined with nonlinear regression analysis with one site binding hyperbola with an equation: […], where Bmax is the maximal binding site and the Kd is the concentration required to reach half-maximal binding. ANOVA analysis at 95% confidence interval (CI) was used to compare treatments (*, […]; confidence interval, ***, […]). To compare live animal FMT, nonparametric one-way ANOVA analyses (Kruskal-Wallis tests) and the median differences were considered significant with P=0.0220.

[3] = test system: Gli36Δ5 cells; experiment: Receptor uptake, cell-associated fluorescence in Gli36Δ5 cells; format: cell-based, human; conditions: 1 μmol/L compound
Protocol: FIG. 2 illustrates a plot showing cell associated fluorescence measured using spectrofluorometry at the indicated times for Gli36Δ5 cells incubated with 1 μmol/L of compounds 1 to 4 [Cy5.5-(AEEA)n-EGFpep].
FIGS. 3(A-B) illustrate images showing Gli36Δ5 (A) and U87-MG (B) cells incubated with 1 μmol/L compounds for the indicated times. Uptake of the compounds was assessed using epifluorescence microscopy. Images were taken at ×40 magnification. Scale bar, 50 μm.
Gli36Δ5 or U87-MG cell lines plated in 96-well culture plates (20,000 cells per well; 3 wells per condition) were incubated over indicated time periods with […] of Cy5.5-labeled EGF peptides 2, 3, and 4 at 37° C. and 5% CO2. Cells were briefly rinsed with HEPES buffer and imaged with a Tecan Infinite M200 fluorescence plate reader (excitation 670 nm, emission 700 nm).

[4] = test system: Gli36Δ5 orthotopic brain tumors; experiment: In vivo FMT imaging of orthotopic Gli36Δ5 brain tumors; design: species or system mice
Protocol: (§1) NIH athymic nude female mice (5-8 weeks and 20-25 g upon arrival, NCI-NIH) were maintained at the Animal Resource Center at Case Western Reserve University (Cleveland, Ohio) according to institutional policies. Cell for brain implantation were harvested with 1 mL 0.05% trypsin-EDTA (Gibco) and briefly washed with PBS. Trypsin was inactivated by the addition of serum-containing media. The resulting cell suspension was centrifuged at […] for 3 minutes. The cell suspension was centrifuged and the supernatant was removed after 2 washes in PBS. Finally, the cells were resuspended in […] PBS for brain implants per animal (250,000 cells per animal for brain implants). […]
(§2) Mice bearing brain tumors derived from Gli36Δ5 or U87-MG cells were administered with compounds at 1 nmol/g via tail vein injection. […] Before injection, mice were anesthetized with isoflurane and subjected to tomographic and spectral fluorescence imaging. […] Fluorescence-mediated molecular tomography (FMT) images were obtained using FMT2500 (Perkin-Elmer), and 3-dimensional reconstructions of fluorescent signals were acquired using the accompanying software TrueQuant. Quantitative fluorescent signals for Cy5.5 of compound 2 were calibrated as per manufacturer's instructions using the 680-channel. […] Fluorescence images were acquired before treatment, immediately after and 1.5 hours after treatment. […]

[5] = test system: U87-MG orthotopic brain tumors; experiment: In vivo FMT imaging of orthotopic U87-MG brain tumors; design: species or system mice
Protocol: as §1, §2

[6] = In vivo FMT imaging of sham surgery animals; design: species or system mice
Protocol: as §1, §2

[7] = test system: A431 cells (high wild-type EGFR); experiment: Saturation binding and fluorescence uptake in A431 cells; format: cell-based, human; conditions: A431 cells incubated with compound plus EGF ligand
From the text: We also examined the expression of EGFRvIII in the cell lines. […] In addition, we examined A431 cells, a squamous carcinoma cell line, that expresses high levels of wild-type EGFR.

[8] = biological target: human epidermal growth factor receptor (EGFR) (human) (UniProt P00533); experiment: cell-based or functional assay

Molecule | accumulation in tumor, % of injected dose [1] | tumor targeting (in words) [1] | binding affinity to the cells (in words) [2] | Kd [2] [µM] | cellular uptake / accumulation of fluorescence (in words) [3] | further results
Cy5.5-(AEEA)1-NYQTPVYGWIYH-amide ({Cy5.5-AEEA}-NYQTPVYGWIYH-NH2) [Compound 6, Cy5.5-labeled scrambled peptide, specificity control, reference compound] | 0.006 % of injected dose | did not target the tumor |  |  |  | 
Cy5.5-(AEEA)1-YHWYGYTPQNVI-amide [Compound 2] | 1.1 % of injected dose | targeted the tumor efficiently | micromolar range | 8.9 | greatest accumulation of fluorescence | tumor targeting (in words) ([1]; listed as compound 2): targets the tumor significantly (***, P>0.0001) more efficiently than the scrambled peptide 6; fluorescence signal as injected dose ([4]; Gli36Δ5 brain tumors, 1 nmol/g, 1 hour, FMT): 1.1%; amount of fluorescence in matching ROI (FMT 3-dimensional reconstruction) ([4]; Gli36Δ5 tumor): 9,271 nmol/L; fluorescence signal as injected dose ([5]; U87-MG brain tumors, 1 nmol/g, 1 hour, FMT): 0.27%; amount of fluorescence in matching ROI (FMT 3-dimensional reconstruction) ([5]; U87-MG tumor): 1,608 nmol/L; amount of fluorescence in matching ROI (FMT 3-dimensional reconstruction) [6]: 272 nmol/L; cell fluorescence in the presence of EGF ligand (in words) [7]: increasing fluorescence in the presence of the EGF ligand
Cy5.5-(AEEA)2-YHWYGYTPQNVI-amide [Compound 3] |  |  | micromolar range | 64.4 | Neither compound 1 (no linker) nor either of the molecules with greater linker numbers (compounds 3 and 4) was taken up by the cells to the same extent as compound 2 | 
Cy5.5-(AEEA)3-YHWYGYTPQNVI-amide [Compound 4] |  |  | micromolar range | 123 | Neither compound 1 (no linker) nor either of the molecules with greater linker numbers (compounds 3 and 4) was taken up by the cells to the same extent as compound 2; also recorded: taken up by cells better than compound 3 | 
Cy5.5-YHWYGYTPQNVI-amide [Compound 1] |  |  | micromolar range | 18.5 | Neither compound 1 (no linker) nor either of the molecules with greater linker numbers (compounds 3 and 4) was taken up by the cells to the same extent as compound 2 | 
NYQTPVYGWIYH (Cy5.5-(AEEA)1 at the N-terminus; C-terminal amide) [Compound 6: Cy5.5-(AEEA)1-…-amide scrambled] |  |  |  |  |  | percent of injected dose delivered to Gli36Δ5 brain tumor (% of injected dose) [8]: 0.006
